Measurements taken from the NIST ThermoML archive (doi:10.1016/j.jct.2015.08.014).
± gives the expanded uncertainty stated by the source.

Assay: xn = mol fraction of the nth substance listed
Conditions: 100 kPa, Liquid; for electrical conductivity: Alternating current cell with electrodes; for mass density: Vibrating tube method; for viscosity: Capillary tube (Ostwald / Ubbelohde) method

In the case of `CCCC[N+]1(C)CCCC1.N#CN=C=[N-]` [1-butyl-1-methylpyrrolidinium dicyanamide] + O=C1CCCO1, the electrical conductivity (298.15 K, Frequency=0.01 MHz, x1 = 0.1449) is reported as 2.51 ± 0.026 S/m, the electrical conductivity (298.15 K, Frequency=0.01 MHz, x1 = 0.1859) is reported as 2.68 ± 0.027 S/m and the electrical conductivity (298.15 K, Frequency=0.01 MHz, x1 = 0.2493) is reported as 2.614 ± 0.026 S/m. It also gave an electrical conductivity (298.15 K, Frequency=0.01 MHz, x1 = 0.3029) of 2.54 ± 0.026 S/m, an electrical conductivity (298.15 K, Frequency=0.01 MHz, x1 = 0.3845) of 2.36 ± 0.024 S/m and an electrical conductivity (298.15 K, Frequency=0.01 MHz, x1 = 0.4985) of 2.08 ± 0.021 S/m. The electrical conductivity (298.15 K, Frequency=0.01 MHz, x1 = 0.6954) was 1.68 ± 0.017 S/m, the electrical conductivity (298.15 K, Frequency=0.01 MHz, x1 = 0.9013) was 1.39 ± 0.014 S/m and the electrical conductivity (298.15 K, Frequency=0.01 MHz, x1 = 1) was 1.318 ± 0.013 S/m. It also gave a mass density (298.15 K, x1 = 0.0987) of 1103.29 ± 8.8 kg/m3, a mass density (298.15 K, x1 = 0.1859) of 1087.38 ± 8.7 kg/m3 and a mass density (298.15 K, x1 = 0.3029) of 1069.77 ± 8.6 kg/m3. The mass density (298.15 K, x1 = 0.4985) was 1047.53 ± 8.4 kg/m3, the mass density (298.15 K, x1 = 0.6954) was 1031.19 ± 8.3 kg/m3 and the mass density (298.15 K, x1 = 0.9013) was 1018.43 ± 8.2 kg/m3. It also gave a mass density (298.15 K, x1 = 1) of 1013.45 ± 8.1 kg/m3, an electrical conductivity (303.15 K, x1 = 0.0463) of 1.58 ± 0.028 S/m and an electrical conductivity (303.15 K, x1 = 0.0987) of 2.38 ± 0.03 S/m. It also gave an electrical conductivity (303.15 K, x1 = 0.1449) of 2.71 ± 0.029 S/m, an electrical conductivity (303.15 K, x1 = 0.1859) of 2.9 ± 0.029 S/m and an electrical conductivity (303.15 K, x1 = 0.2493) of 2.86 ± 0.029 S/m. The electrical conductivity (303.15 K, x1 = 0.3029) was 2.79 ± 0.028 S/m, the electrical conductivity (303.15 K, x1 = 0.3845) was 2.619 ± 0.026 S/m and the electrical conductivity (303.15 K, x1 = 0.4985) was 2.33 ± 0.024 S/m. The electrical conductivity (303.15 K, x1 = 0.6954) was 1.912 ± 0.019 S/m, the electrical conductivity (303.15 K, x1 = 0.9013) was 1.608 ± 0.016 S/m and the electrical conductivity (303.15 K, x1 = 1) was 1.527 ± 0.015 S/m. For the same compound, the viscosity (303.15 K, x1 = 0.0987) was 2.56 ± 0.06 mPa·s, the viscosity (303.15 K, x1 = 0.1859) was 3.64 ± 0.08 mPa·s and the viscosity (303.15 K, x1 = 0.3029) was 5.53 ± 0.12 mPa·s. It also gave a viscosity (303.15 K, x1 = 0.4985) of 9.91 ± 0.22 mPa·s, a viscosity (303.15 K, x1 = 0.6954) of 16.03 ± 0.36 mPa·s and a viscosity (303.15 K, x1 = 0.9013) of 23.88 ± 0.54 mPa·s. The viscosity (303.15 K, x1 = 1) was 28.53 ± 0.65 mPa·s, the electrical conductivity (303.15 K, Frequency=0.0005 MHz, x1 = 0.0463) was 1.56 ± 0.028 S/m and the electrical conductivity (303.15 K, Frequency=0.0005 MHz, x1 = 0.0987) was 2.36 ± 0.029 S/m. It also gave an electrical conductivity (303.15 K, Frequency=0.0005 MHz, x1 = 0.1449) of 2.71 ± 0.029 S/m, an electrical conductivity (303.15 K, Frequency=0.0005 MHz, x1 = 0.1859) of 2.87 ± 0.029 S/m and an electrical conductivity (303.15 K, Frequency=0.0005 MHz, x1 = 0.2493) of 2.85 ± 0.029 S/m. It also gave an electrical conductivity (303.15 K, Frequency=0.0005 MHz, x1 = 0.3029) of 2.78 ± 0.028 S/m, an electrical conductivity (303.15 K, Frequency=0.0005 MHz, x1 = 0.3845) of 2.608 ± 0.026 S/m and an electrical conductivity (303.15 K, Frequency=0.0005 MHz, x1 = 0.4985) of 2.33 ± 0.024 S/m. It also gave an electrical conductivity (303.15 K, Frequency=0.0005 MHz, x1 = 0.6954) of 1.908 ± 0.019 S/m, an electrical conductivity (303.15 K, Frequency=0.0005 MHz, x1 = 0.9013) of 1.602 ± 0.016 S/m and an electrical conductivity (303.15 K, Frequency=0.0005 MHz, x1 = 1) of 1.525 ± 0.015 S/m. For the same compound, the electrical conductivity (303.15 K, Frequency=0.001 MHz, x1 = 0.0463) was 1.57 ± 0.028 S/m, the electrical conductivity (303.15 K, Frequency=0.001 MHz, x1 = 0.0987) was 2.37 ± 0.03 S/m and the electrical conductivity (303.15 K, Frequency=0.001 MHz, x1 = 0.1449) was 2.71 ± 0.029 S/m. For the same compound, the electrical conductivity (303.15 K, Frequency=0.001 MHz, x1 = 0.1859) was 2.88 ± 0.029 S/m, the electrical conductivity (303.15 K, Frequency=0.001 MHz, x1 = 0.2493) was 2.85 ± 0.029 S/m and the electrical conductivity (303.15 K, Frequency=0.001 MHz, x1 = 0.3029) was 2.78 ± 0.028 S/m. It also gave an electrical conductivity (303.15 K, Frequency=0.001 MHz, x1 = 0.3845) of 2.612 ± 0.026 S/m, an electrical conductivity (303.15 K, Frequency=0.001 MHz, x1 = 0.4985) of 2.33 ± 0.024 S/m and an electrical conductivity (303.15 K, Frequency=0.001 MHz, x1 = 0.6954) of 1.909 ± 0.019 S/m. It also gave an electrical conductivity (303.15 K, Frequency=0.001 MHz, x1 = 0.9013) of 1.604 ± 0.016 S/m, an electrical conductivity (303.15 K, Frequency=0.001 MHz, x1 = 1) of 1.526 ± 0.015 S/m and an electrical conductivity (303.15 K, Frequency=0.0015 MHz, x1 = 0.0463) of 1.57 ± 0.028 S/m. It also gave an electrical conductivity (303.15 K, Frequency=0.0015 MHz, x1 = 0.0987) of 2.37 ± 0.03 S/m, an electrical conductivity (303.15 K, Frequency=0.0015 MHz, x1 = 0.1449) of 2.71 ± 0.029 S/m and an electrical conductivity (303.15 K, Frequency=0.0015 MHz, x1 = 0.1859) of 2.89 ± 0.029 S/m. It also gave an electrical conductivity (303.15 K, Frequency=0.0015 MHz, x1 = 0.2493) of 2.85 ± 0.029 S/m, an electrical conductivity (303.15 K, Frequency=0.0015 MHz, x1 = 0.3029) of 2.78 ± 0.028 S/m and an electrical conductivity (303.15 K, Frequency=0.0015 MHz, x1 = 0.3845) of 2.614 ± 0.026 S/m. For the same compound, the electrical conductivity (303.15 K, Frequency=0.0015 MHz, x1 = 0.4985) was 2.33 ± 0.024 S/m, the electrical conductivity (303.15 K, Frequency=0.0015 MHz, x1 = 0.6954) was 1.91 ± 0.019 S/m and the electrical conductivity (303.15 K, Frequency=0.0015 MHz, x1 = 0.9013) was 1.605 ± 0.016 S/m. For the same compound, the electrical conductivity (303.15 K, Frequency=0.0015 MHz, x1 = 1) was 1.526 ± 0.015 S/m, the electrical conductivity (303.15 K, Frequency=0.002 MHz, x1 = 0.0463) was 1.57 ± 0.028 S/m and the electrical conductivity (303.15 K, Frequency=0.002 MHz, x1 = 0.0987) was 2.38 ± 0.03 S/m. It also gave an electrical conductivity (303.15 K, Frequency=0.002 MHz, x1 = 0.1449) of 2.71 ± 0.029 S/m, an electrical conductivity (303.15 K, Frequency=0.002 MHz, x1 = 0.1859) of 2.89 ± 0.029 S/m and an electrical conductivity (303.15 K, Frequency=0.002 MHz, x1 = 0.2493) of 2.85 ± 0.029 S/m. The electrical conductivity (303.15 K, Frequency=0.002 MHz, x1 = 0.3029) was 2.79 ± 0.028 S/m, the electrical conductivity (303.15 K, Frequency=0.002 MHz, x1 = 0.3845) was 2.616 ± 0.026 S/m and the electrical conductivity (303.15 K, Frequency=0.002 MHz, x1 = 0.4985) was 2.33 ± 0.024 S/m. The electrical conductivity (303.15 K, Frequency=0.002 MHz, x1 = 0.6954) was 1.911 ± 0.019 S/m, the electrical conductivity (303.15 K, Frequency=0.002 MHz, x1 = 0.9013) was 1.606 ± 0.016 S/m and the electrical conductivity (303.15 K, Frequency=0.002 MHz, x1 = 1) was 1.527 ± 0.015 S/m. The electrical conductivity (303.15 K, Frequency=0.0025 MHz, x1 = 0.0463) was 1.57 ± 0.028 S/m, the electrical conductivity (303.15 K, Frequency=0.0025 MHz, x1 = 0.0987) was 2.38 ± 0.03 S/m and the electrical conductivity (303.15 K, Frequency=0.0025 MHz, x1 = 0.1449) was 2.71 ± 0.029 S/m. For the same compound, the electrical conductivity (303.15 K, Frequency=0.0025 MHz, x1 = 0.1859) was 2.89 ± 0.029 S/m, the electrical conductivity (303.15 K, Frequency=0.0025 MHz, x1 = 0.2493) was 2.85 ± 0.029 S/m and the electrical conductivity (303.15 K, Frequency=0.0025 MHz, x1 = 0.3029) was 2.79 ± 0.028 S/m. It also gave an electrical conductivity (303.15 K, Frequency=0.0025 MHz, x1 = 0.3845) of 2.616 ± 0.026 S/m, an electrical conductivity (303.15 K, Frequency=0.0025 MHz, x1 = 0.4985) of 2.33 ± 0.024 S/m and an electrical conductivity (303.15 K, Frequency=0.0025 MHz, x1 = 0.6954) of 1.911 ± 0.019 S/m. It also gave an electrical conductivity (303.15 K, Frequency=0.0025 MHz, x1 = 0.9013) of 1.606 ± 0.016 S/m, an electrical conductivity (303.15 K, Frequency=0.0025 MHz, x1 = 1) of 1.527 ± 0.015 S/m and an electrical conductivity (303.15 K, Frequency=0.003 MHz, x1 = 0.0463) of 1.58 ± 0.028 S/m. It also gave an electrical conductivity (303.15 K, Frequency=0.003 MHz, x1 = 0.0987) of 2.38 ± 0.03 S/m, an electrical conductivity (303.15 K, Frequency=0.003 MHz, x1 = 0.1449) of 2.71 ± 0.029 S/m and an electrical conductivity (303.15 K, Frequency=0.003 MHz, x1 = 0.1859) of 2.89 ± 0.029 S/m. For the same compound, the electrical conductivity (303.15 K, Frequency=0.003 MHz, x1 = 0.2493) was 2.85 ± 0.029 S/m, the electrical conductivity (303.15 K, Frequency=0.003 MHz, x1 = 0.3029) was 2.79 ± 0.028 S/m and the electrical conductivity (303.15 K, Frequency=0.003 MHz, x1 = 0.3845) was 2.617 ± 0.026 S/m. For the same compound, the electrical conductivity (303.15 K, Frequency=0.003 MHz, x1 = 0.4985) was 2.33 ± 0.024 S/m, the electrical conductivity (303.15 K, Frequency=0.003 MHz, x1 = 0.6954) was 1.911 ± 0.019 S/m and the electrical conductivity (303.15 K, Frequency=0.003 MHz, x1 = 0.9013) was 1.607 ± 0.016 S/m. The electrical conductivity (303.15 K, Frequency=0.003 MHz, x1 = 1) was 1.527 ± 0.015 S/m, the electrical conductivity (303.15 K, Frequency=0.00347222 MHz, x1 = 0.0463) was 1.58 ± 0.028 S/m and the electrical conductivity (303.15 K, Frequency=0.00347222 MHz, x1 = 0.0987) was 2.38 ± 0.03 S/m. It also gave an electrical conductivity (303.15 K, Frequency=0.00347222 MHz, x1 = 0.1449) of 2.71 ± 0.029 S/m, an electrical conductivity (303.15 K, Frequency=0.00347222 MHz, x1 = 0.1859) of 2.9 ± 0.029 S/m and an electrical conductivity (303.15 K, Frequency=0.00347222 MHz, x1 = 0.2493) of 2.85 ± 0.029 S/m. It also gave an electrical conductivity (303.15 K, Frequency=0.00347222 MHz, x1 = 0.3029) of 2.79 ± 0.028 S/m and an electrical conductivity (303.15 K, Frequency=0.00347222 MHz, x1 = 0.3845) of 2.617 ± 0.026 S/m.
